Experiment [1] deals with T1, cAMP phosphodiesterase 3 from human platelets (Homo sapiens, UniProt Q14432).
T1 construct: from tissue; host or cells: human platelets, cytoplasmic extract
Briefly: Inhibition of cAMP phosphodiesterase 3 from human platelets. To be noted: for inhibition at 100 µM: PDE3. The format is biochemical. The method, boiled down:
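Partially purified human platelet extract used as PDE3 source with cAMP as substrate, so cGMP-preferring PDE2 and PDE5 present in platelets go undetected. IBMX served as positive control.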

The target of experiment [2] is PDE 1 (bovine heart) (Bos taurus, UniProt P14100). Briefly: PDE isozyme specificity: PDE 1. The format is biochemical. An excerpt: (§1) Compound 12 was screened for activity against 5 of the major classes of mammalian cyclic nucleotide phosphodiesterase (termed PDE 1 through 5). PDE's 1 through 4 utilize cAMP as substrate while PDE 5 uses cGMP. The broad specificity PDE inhibitor 3-isobutyl-1-methylxanthine (IBMX; Sigma; Catalogue No. 17018)) was used as a positive control in all assays. PDE's for the various assays were partially purified from the following cells/tissues; PDE 1 (bovine heart), PDE 2 (human platelets), PDE 3 (human platelets), PDE 4 (human promonocytic U937 cells) and PDE 5 (human platelets).
PDE 1 (bovine heart), sequence (P14100 35-530): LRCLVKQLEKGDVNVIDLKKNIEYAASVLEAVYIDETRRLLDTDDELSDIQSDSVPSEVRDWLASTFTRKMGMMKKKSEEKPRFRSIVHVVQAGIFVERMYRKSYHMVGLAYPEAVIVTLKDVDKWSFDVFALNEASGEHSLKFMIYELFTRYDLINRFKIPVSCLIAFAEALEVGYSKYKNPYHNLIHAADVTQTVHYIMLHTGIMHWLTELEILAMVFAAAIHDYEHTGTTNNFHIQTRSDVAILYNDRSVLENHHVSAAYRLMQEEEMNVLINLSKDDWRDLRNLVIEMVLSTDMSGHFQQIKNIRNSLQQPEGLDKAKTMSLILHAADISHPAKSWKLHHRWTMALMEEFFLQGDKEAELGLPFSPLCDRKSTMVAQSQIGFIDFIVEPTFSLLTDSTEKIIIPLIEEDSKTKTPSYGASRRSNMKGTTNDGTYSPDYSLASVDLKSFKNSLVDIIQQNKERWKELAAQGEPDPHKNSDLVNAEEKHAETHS
(§2) Test compounds (at 100 μM) were screened for activity against PDE 1,2 and 5, using standard biochemical methods performed at MDS Panlabs (Bothell, Wash., USA). The broad specificity PDE inhibitor 3-isobutyl-1-methylxanthine (IBMX) was used as a positive control in all assays. PDE's for the various assays were partially purified from the following cells/tissues; PDE 1 (bovine heart), PDE 2 (human platelets) and PDE 5 (human platelets). For purposes of comparison, the effects on PDE3 (human platelets) and PDE4 (human U937 monocytic cell line) described above are presented again in Table 12.

Experiment [3] has as its target T2, PDE 2 (human platelets) (Homo sapiens, UniProt O00408).
T2 construct: PDE's for the various assays were partially purified from the following cells/tissues; tissue MDS Panlabs (assay service); host or cells: human platelets
Briefly: PDE isozyme specificity: PDE 2. The format is biochemical. To be noted: for inhibition at 100 µM: PDE2, X marks this range.
From the text: as §1, §2

Experiment [4] has as its system cAMP response element luciferase activity in human U937 monocytic cells. Briefly: Potentiation of forskolin-induced CRE-luciferase activity in U937 cells. Type of experiment: cell-based. To be noted: U-937, U937 cells co-incubated with 10 μM forskolin, 4 hours, X marks this range. In outline:
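U937 cells electroporated with PCRE-luc reporter, recovered 16-18 h, then exposed to compound or vehicle with or without 10 μM forskolin for 4 h at 37 °C. Cell lysates read for luciferase luminescence.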

Experiment [5] concerns High Affinity Rolipram Binding Site of PDE4 in Mouse Brain. As to the kind of experiment: Displacement of [3H]-rolipram from its high affinity binding site (HARBS). To be noted: for PDE4:HARBS: ratio of IC50 for PDE4 catalytic activity to concentration displacing 50% of rolipram from HARBS.
The test system of experiment [6] is tail skin allograft rejection (C57BL/6 donor, BALB/c recipient mice). As to the kind of experiment: Murine tail skin allograft transplantation model. The format is in vivo, mouse. To be noted: 10 mg/kg i.p. twice daily; for Average graft survival: from one day prior to and for 15 days after transplantation; for # grafts surviving beyond 16 days p.t.: five mice per group. As for the experimental part:
Tail skin from donor H-2 b C57BL/6 mice was transplanted onto recipient female H-2^d BALB/c mice (Lagodzinski, Z. et al., Immunology 71:148-150 (1990)). Five mice were included per group. […] Test compounds and CsA were administered twice daily intraperitoneally at a dose of 10 mg/kg beginning at one day prior to transplantation and for 15 days after transplantation, including the day of transplantation. Mice were monitored and scored daily over 15 days post transplantation for graft rejection.
Skin allograft rejection is primarily mediated by T lymphocytes with little evidence for a major role of antibodies under most circumstances. Skin allograft rejection requires the activation of helper and cytotoxic effector T cell populations. Graft rejection was assessed by monitoring allograft necrosis. Because tail skin is visibly distinct from the surrounding trunk skin of the mouse, the course of rejection can be easily monitored. Fully intact grafts were scored as 100%. Complete graft rejection was defined as >90% graft necrosis. Acute graft rejection generally proceeds via a series of visually obvious events beginning with swelling and erythema of the graft. These events are followed by graft desiccation and scab formation over most or all of the graft, signaling the loss of the viable graft tissue. Scab formation is subsequently followed by shrinkage and scar formation.

[7] abbreviates: read-out: % inhibition by 100 μM test compound 50-75, PDE1, X marks this range.
Where [8] appears, read: read-out: % inhibition by 100 μM test compound 25-50.
The mark [9] stands for this setting: PDE3, platelet cell extract, X marks this range, read-out: IC50 range (μM) 10-100.
Setting [10] is: read-out: EC50 range (μM) 0.1-1.
The mark [11] stands for this setting: PDE3, platelet cell extract, X marks this range, read-out: IC50 range (μM) 1-10.

Read-outs that look alike come from different tables or passages of the source.

T1 sequence (Q14432 whole entry): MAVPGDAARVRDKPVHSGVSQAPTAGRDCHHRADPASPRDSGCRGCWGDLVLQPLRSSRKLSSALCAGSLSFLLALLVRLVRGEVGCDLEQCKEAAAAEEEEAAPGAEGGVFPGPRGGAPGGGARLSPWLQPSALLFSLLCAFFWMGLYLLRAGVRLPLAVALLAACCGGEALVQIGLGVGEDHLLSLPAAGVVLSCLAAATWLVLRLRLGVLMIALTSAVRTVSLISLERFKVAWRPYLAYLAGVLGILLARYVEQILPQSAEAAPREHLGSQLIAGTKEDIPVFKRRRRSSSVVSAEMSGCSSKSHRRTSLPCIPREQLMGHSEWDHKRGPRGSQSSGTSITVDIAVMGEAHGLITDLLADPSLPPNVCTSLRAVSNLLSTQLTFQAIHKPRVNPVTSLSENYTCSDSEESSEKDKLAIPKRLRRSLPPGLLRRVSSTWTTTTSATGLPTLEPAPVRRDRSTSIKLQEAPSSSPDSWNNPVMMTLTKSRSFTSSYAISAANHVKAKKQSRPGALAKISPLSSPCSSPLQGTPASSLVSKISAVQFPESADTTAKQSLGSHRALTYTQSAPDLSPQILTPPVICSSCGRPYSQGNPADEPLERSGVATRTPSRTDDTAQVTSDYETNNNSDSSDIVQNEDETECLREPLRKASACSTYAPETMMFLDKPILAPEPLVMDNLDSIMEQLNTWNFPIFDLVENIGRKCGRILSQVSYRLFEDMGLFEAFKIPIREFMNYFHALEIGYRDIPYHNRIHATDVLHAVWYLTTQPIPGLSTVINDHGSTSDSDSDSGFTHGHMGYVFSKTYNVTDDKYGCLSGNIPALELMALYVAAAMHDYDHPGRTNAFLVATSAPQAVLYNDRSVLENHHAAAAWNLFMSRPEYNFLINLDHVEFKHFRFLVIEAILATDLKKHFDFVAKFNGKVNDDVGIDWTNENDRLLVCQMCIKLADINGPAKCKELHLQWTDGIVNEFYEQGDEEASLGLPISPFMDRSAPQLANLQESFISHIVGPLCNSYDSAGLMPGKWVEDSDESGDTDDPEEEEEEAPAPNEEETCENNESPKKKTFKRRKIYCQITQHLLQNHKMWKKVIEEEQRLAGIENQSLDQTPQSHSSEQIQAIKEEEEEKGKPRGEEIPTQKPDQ
T2 sequence (O00408 whole entry): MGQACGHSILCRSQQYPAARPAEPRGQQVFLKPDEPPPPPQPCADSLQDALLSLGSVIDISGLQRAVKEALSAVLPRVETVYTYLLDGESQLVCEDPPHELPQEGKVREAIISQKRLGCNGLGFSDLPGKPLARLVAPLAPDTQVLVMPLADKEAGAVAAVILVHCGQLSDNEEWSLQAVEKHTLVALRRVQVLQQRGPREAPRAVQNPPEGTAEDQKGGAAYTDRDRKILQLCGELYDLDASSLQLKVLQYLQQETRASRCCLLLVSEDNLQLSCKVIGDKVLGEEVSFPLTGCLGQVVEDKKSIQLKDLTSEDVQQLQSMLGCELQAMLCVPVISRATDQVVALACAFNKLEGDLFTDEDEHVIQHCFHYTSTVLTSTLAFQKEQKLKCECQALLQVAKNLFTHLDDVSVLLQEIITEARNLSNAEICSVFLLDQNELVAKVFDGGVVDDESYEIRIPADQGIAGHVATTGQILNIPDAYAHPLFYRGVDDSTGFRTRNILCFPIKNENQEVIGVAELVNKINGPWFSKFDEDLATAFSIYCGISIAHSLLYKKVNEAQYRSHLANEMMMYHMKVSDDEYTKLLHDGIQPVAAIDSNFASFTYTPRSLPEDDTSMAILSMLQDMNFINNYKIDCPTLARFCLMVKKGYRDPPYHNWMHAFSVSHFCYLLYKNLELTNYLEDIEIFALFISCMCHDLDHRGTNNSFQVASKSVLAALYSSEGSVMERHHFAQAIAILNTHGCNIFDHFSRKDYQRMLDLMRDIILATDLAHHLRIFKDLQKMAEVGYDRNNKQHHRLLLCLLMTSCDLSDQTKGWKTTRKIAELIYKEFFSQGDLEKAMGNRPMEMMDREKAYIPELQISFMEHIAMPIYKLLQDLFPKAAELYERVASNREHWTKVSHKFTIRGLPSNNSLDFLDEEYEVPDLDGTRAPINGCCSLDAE

In general, IC50 refers to the concentration at which inhibition is half-maximal. What is called inhibition is how much of the control response was suppressed. As a reminder, the EC50 is the midpoint of the concentration-response curve. On to `COc1cc(C[C@@H]2CC(c3ccc(OC)c(OC)c3)COC2=O)ccc1O` (mixture of isomers) [Compound 12], for which the IC50 in experiment [1] (human platelets, read-out: IC50 PDE 3) amounted to 45 µM. The inhibition at 100 µM in experiment [1] (read-out: % inhibition by 100 μM test compound 50-75, X marks this range) lay within 50 to 75%; in experiment [2] (setting [7]), 50 to 75%; in experiment [3] (setting [8]), 25 to 50%. Further, the “inhibitory effect on PDE 2” value in experiment [3] (human platelets) is given as “no significant inhibitory effects”. In addition, in experiment [4] (read-out: EC50 range (μM) 1-25), the EC50 lay in the range of 1 to 25 µM.

For the compound `COc1cc(C[C@@H]2C[C@@H](c3ccc(OC)c(OC)c3)COC2=O)ccc1O` [Compound 30], in experiment [1] (setting [9]), the IC50 was 10 to 100 µM. Further, the “PDE4:HARBS” value in experiment [5] was below 1. In addition, the concentration for a half-maximal effect (EC50) in experiment [4] (read-out: EC50 range (μM) 1-25) lay in the range of 1 to 25 µM.

In turn, `COc1ccc([C@@H]2CCC(=O)OC2)cc1OC1CCCC1` [Compound 41] showed an IC50 in experiment [1] (PDE3, platelet cell extract, X marks this range) above 100 µM. The inhibition at 100 µM in experiment [1] (read-out: % inhibition by 100 μM test compound 25-50, X marks this range) fell in the range of 25 to 50%; in experiment [2] (read-out: % inhibition by 100 μM test compound 1-25, PDE1, X marks this range), 1 to 25%; in experiment [3] (setting [8]), 25 to 50%. Further, in experiment [5], the “PDE4:HARBS” value is above 1. Further, in experiment [4] (setting [10]), the EC50 lay within 0.1 to 1 µM. The “Average graft survival” value in experiment [6] was 11.6 ± 4.6 days. The “Allograft survival rate (% at 9 days post-transplant)” value in experiment [6] is listed as 60%. In experiment [6], the “# grafts surviving beyond 16 days p.t.” value was 1.

In the case of `COc1cc(CC2C[C@@H](c3ccc(OC)c(OC4CCCC4)c3)COC2=O)ccc1O` (some centres unmarked) [Compound 43], the IC50 in experiment [1] (setting [9]) fell in the range of 10 to 100 µM. The inhibition at 100 µM lay in the range of 75 to 100% in experiment [1] (read-out: % inhibition by 100 μM test compound 75-100, X marks this range); 50 to 75% in experiment [2] (setting [7]); 50 to 75% in experiment [3] (read-out: % inhibition by 100 μM test compound 50-75). Further, in experiment [5], the “ratio of IC50's for PDE4catalytic to PDE4HARBS” value is on record as 1.04. The “PDE4:HARBS” value in experiment [5] is above 1. In addition, the EC50 in experiment [4] (setting [10]) fell in the range of 0.1 to 1 µM.

On to `COc1ccc([C@H]2CNC(=O)C(Cc3ccc(OCc4ccccc4)c(OC)c3)C2)cc1OC` (some centres unmarked) [Compound 54], for which the IC50 in experiment [1] (setting [11]) was 1 to 10 µM. Further, in experiment [5], the “PDE4:HARBS” value is above 1. For the same compound, in experiment [4] (read-out: EC50 range (μM) 1-25), the 50% effective concentration (EC50) lay within 1 to 25 µM. Further, in experiment [6], the “Average graft survival” value was 11.5 ± 3.3 days, the “Allograft survival rate (% at 9 days post-transplant)” value is 75% and the “# grafts surviving beyond 16 days p.t.” value is reported as 0.

Turning to `COc1cc(CC2C[C@@H](c3ccc(OC)c(OC)c3)CNC2=O)ccc1O` (some centres unmarked) [Compound 55], in experiment [1] (setting [11]), the IC50 was 1 to 10 µM. Further, the “PDE4:HARBS” value in experiment [5] was above 1. The EC50 in experiment [4] (read-out: EC50 range (μM) 1-25) was 1 to 25 µM.

Consider `COc1cc(CC2C[C@@H](c3ccc(OC)c(OC4CCCC4)c3)CNC2=O)ccc1O` (some centres unmarked) [Compound 62], for which the IC50 in experiment [1] (setting [11]) fell in the range of 1 to 10 µM. Moreover, the “PDE4:HARBS” value in experiment [5] is above 1. Also, the EC50 in experiment [4] (read-out: EC50 range (μM) 1-25) lay within 1 to 25 µM.

For the compound `COc1ccc(C2CNC(=O)C2)cc1OC1CCCC1` (centres unmarked) [Rolipram, reference compound], the “effect in PDE3 assay” value in experiment [1] (platelet cell extract, cAMP as substrate) is reported as “without effect”. Also, in experiment [6], the “Average graft survival” value was determined as 11.5 ± 3.7 days, the “Allograft survival rate (% at 9 days post-transplant)” value worked out at 50% and the “# grafts surviving beyond 16 days p.t.” value was determined as 1.

Source of the values: patent US20030186943A1, “Substituted gamma-phenyl-delta-lactams and uses related thereto” (Inflazyme Pharmaceuticals Ltd., priority 1998, published 2003).
